What follows are compounds tested on intracellular HBV DNA (assay: Real-time PCR for intracellular HBV DNA in HepAD38 cells). Conditions: 65 hours treatment.
Format: cell-based
Description: HepAD38 cells were cultured in DMEM medium (Welgene) supplemented with 200 unit/mL penicillin, 200 μg/mL streptomycin, and 10% FBS. During maintenance and passage, the cells were cultured together with 0.4 μg/mL tetracycline. Two days before the treatment with compounds for inducing HBV replication was started, the medium was replaced with a tetracycline-free complete growth medium. […]
HepAD38 cells were treated with a compound for 65 hours and then recovered, and intracellular HBV DNA was extracted therefrom according to the protocol in the DNeasy Blood & Tissue Kit (Qiagen). The primers and probes used to quantify HBV DNA were 5′-[…]-3′, 5′-[…]-3′, and 5′-/56-FAM/TGT CCT GGT/ZEN/TAT CGC TGG ATG TGT CT/3IABkFQ/-3′. The HBV DNA was amplified by real-time PCR assay using LightCycler 480 (Roche) (J. Virol., 2018, 92(16):e00339-18). All of the processes were confirmed in duplicate.

Q: How did the IC50 turn out when `COc1ncc(N(Cc2cc(C(F)(F)F)[nH]n2)C(=O)Nc2ccc(F)c(C(F)F)n2)cn1` [Example 204, 3-(6-(difluoromethyl)-5-fluoropyridin-2-yl)-1-(2-methoxypyrimidin-5-yl)-1-((5-(trifluoromethyl)-1H-pyrazol-3-yl)methyl)urea] was run?
A: 36 nM

Q: For `COc1ncc(N(Cc2cc(C(F)F)[nH]n2)C(=O)Nc2ccc(F)c(C(F)F)n2)cn1` [Example 210, 1-((5-(difluoromethyl)-1H-pyrazol-3-yl)methyl)-3-(6-(difluoromethyl)-5-fluoropyridin-2-yl)-1-(2-methoxypyrimidin-5-yl)urea], which IC50 is on record?
A: 130 nM

Same assay, conditions: Hepatitis B virus, HePAD38, 65 h, 65 hours treatment

Q: With `COc1ncc(N(Cc2cc(C#N)[nH]n2)C(=O)Nc2ccc(F)c(C#N)c2)cn1` [Example 157, 1-((5-cyano-1H-pyrazol-3-yl)methyl)-3-(3-cyano-4-fluorophenyl)-1-(2-methoxypyrimidin-5-yl)urea] as the compound, how does the IC50 read?
A: 66 nM

Q: For `COc1ncc(N(Cc2cc(C(F)(F)F)[nH]n2)C(=O)Nc2ccnc(C#N)c2F)cn1` [Example 158, 3-(2-cyano-3-fluoropyridin-4-yl)-1-(2-methoxypyrimidin-5-yl)-1-((5-(trifluoromethyl)-1H-pyrazol-3-yl)methyl)urea], which IC50 is on record?
A: 230 nM

Q: Which IC50 does the source give for `COc1ncc(N(Cc2cc(C(F)(F)F)[nH]n2)C(=O)Nc2ccc(F)c(C#N)n2)cn1` [Example 160, 3-(6-cyano-5-fluoropyridin-2-yl)-1-(2-methoxypyrimidin-5-yl)-1-((5-(trifluoromethyl)-1H-pyrazol-3-yl)methyl)urea] here?
A: 430 nM

Q: How did the IC50 turn out when `COc1ncc(N(Cc2cc(C(F)(F)F)[nH]n2)C(=O)Nc2cc(C#N)c(F)cn2)cn1` [Example 161, 3-(4-cyano-5-fluoropyridin-2-yl)-1-(2-methoxypyrimidin-5-yl)-1-((5-(trifluoromethyl)-1H-pyrazol-3-yl)methyl)urea] was run?
A: 74 nM

Q: How did the IC50 turn out when `COC12CC(N(Cc3cc(C(F)(F)F)[nH]n3)C(=O)Nc3ccc(F)c(C#N)c3)(C1)C2` [Example 162, 3-(3-cyano-4-fluorophenyl)-1-(3-methoxybicyclo[1.1.1]pentan-1-yl)-1-((5-(trifluoromethyl)-1H-pyrazol-3-yl)methyl)urea] was run?
A: 36 nM

Q: Which IC50 does the source give for `COc1ncc(N(Cc2cc(C(F)(F)F)[nH]n2)C(=O)Nc2ccc(Cl)nc2Cl)cn1` [Example 165, 3-(2,6-dichloropyridin-3-yl)-1-(2-methoxypyrimidin-5-yl)-1-((5-(trifluoromethyl)-1H-pyrazol-3-yl)methyl)urea] here?
A: > 1100 nM

Q: `COc1ncc(N(Cc2cc(C(F)F)[nH]n2)C(=O)Nc2ccc(Cl)nc2Cl)cn1` [Example 166, 3-(2,6-dichloropyridin-3-yl)-1-((5-(difluoromethyl)-1H-pyrazol-3-yl)methyl)-1-(2-methoxypyrimidin-5-yl)urea] was tested. Which IC50 did it give?
A: > 1100 nM

Q: Which IC50 does the source give for `COc1ncc(N(Cc2cc(C(F)(F)F)[nH]n2)C(=O)Nc2ccc(C#N)c(C#N)c2)cn1` [Example 167, 3-(3,4-dicyanophenyl)-1-(2-methoxypyrimidin-5-yl)-1-((5-(trifluoromethyl)-1H-pyrazol-3-yl)methyl)urea] here?
A: 190 nM

Q: Which IC50 does the source give for `COc1ncc(N(Cc2cc(C(F)(F)F)[nH]n2)C(=O)Nc2nc(F)ccc2F)cn1` [Example 169, 3-(3,6-difluoropyridin-2-yl)-1-(2-methoxypyrimidin-5-yl)-1-((5-(trifluoromethyl)-1H-pyrazol-3-yl)methyl)urea] here?
A: > 1100 nM

Q: Which IC50 does the source give for `COc1ncc(N(Cc2cc(C(F)(F)F)[nH]n2)C(=O)Nc2ccc(F)c(F)n2)cn1` [Example 170, 3-(5,6-difluoropyridin-2-yl)-1-(2-methoxypyrimidin-5-yl)-1-((5-(trifluoromethyl)-1H-pyrazol-3-yl)methyl)urea] here?
A: 300 nM

Q: For `COc1ncc(N(Cc2cc(C(F)(F)F)[nH]n2)C(=O)Nc2cnc(F)c(F)c2)cn1` [Example 171, 3-(5,6-difluoropyridin-3-yl)-1-(2-methoxypyrimidin-5-yl)-1-((5-(trifluoromethyl)-1H-pyrazol-3-yl)methyl)urea], which IC50 is on record?
A: 280 nM

Q: With `COc1ncc(N(Cc2cc(C(F)(F)F)[nH]n2)C(=O)Nc2ccnc(C(F)F)c2)cn1` [Example 175, 3-(2-(difluoromethyl)pyridin-4-yl)-1-(2-methoxypyrimidin-5-yl)-1-((5-(trifluoromethyl)-1H-pyrazol-3-yl)methyl)urea] as the compound, how does the IC50 read?
A: 41 nM

Q: With `COc1ncc(N(Cc2cc(C(F)(F)F)[nH]n2)C(=O)Nc2cccc(C(F)F)n2)cn1` [Example 177, 3-(6-(difluoromethyl)pyridin-2-yl)-1-(2-methoxypyrimidin-5-yl)-1-((5-(trifluoromethyl)-1H-pyrazol-3-yl)methyl)urea] as the compound, how does the IC50 read?
A: 100 nM

Q: Which IC50 does the source give for `COc1ncc(N(Cc2cc(C(F)(F)F)[nH]n2)C(=O)Nc2cccc(F)n2)cn1` [Example 183, 3-(6-fluoropyridin-2-yl)-1-(2-methoxypyrimidin-5-yl)-1-((5-(trifluoromethyl)-1H-pyrazol-3-yl)methyl)urea] here?
A: > 1100 nM

Q: `COc1ncc(N(Cc2cc(C(F)(F)F)[nH]n2)C(=O)NC23CC(F)(C2)C3)cn1` [Example 185, 3-(3-fluorobicyclo[1.1.1]pentan-1-yl)-1-(2-methoxypyrimidin-5-yl)-1-((5-(trifluoromethyl)-1H-pyrazol-3-yl)methyl)urea] was tested. Which IC50 did it give?
A: > 1100 nM

Q: Which IC50 does the source give for `COc1ncc(N(Cc2cc(C(F)F)[nH]n2)C(=O)Nc2ccc(F)c(C(F)F)c2)cn1` [Example 190, 1-((5-(difluoromethyl)-1H-pyrazol-3-yl)methyl)-3-(3-(difluoromethyl)-4-fluorophenyl)-1-(2-methoxypyrimidin-5-yl)urea] here?
A: 20 nM

Q: Which IC50 does the source give for `COc1ccc(N(Cc2cc(C(F)F)[nH]n2)C(=O)Nc2ccc(F)c(C(F)F)c2)cn1` [Example 191, 1-((5-(difluoromethyl)-1H-pyrazol-3-yl)methyl)-3-(3-(difluoromethyl)-4-fluorophenyl)-1-(6-methoxypyridin-3-yl)urea] here?
A: 24 nM

Q: Which IC50 does the source give for `COc1ccc(N(Cc2cc(C(F)(F)F)[nH]n2)C(=O)Nc2ccc(F)c(C(F)F)c2)nn1` [Example 200, 3-(3-(difluoromethyl)-4-fluorophenyl)-1-(6-methoxypyridazin-3-yl)-1-((5-(trifluoromethyl)-1H-pyrazol-3-yl)methyl)urea] here?
A: > 1100 nM

Q: How did the IC50 turn out when `COc1cc(N(Cc2cc(C(F)(F)F)[nH]n2)C(=O)Nc2ccc(F)c(C(F)F)c2)cnn1` [Example 203, 3-(3-(difluoromethyl)-4-fluorophenyl)-1-(6-methoxypyridazin-4-yl)-1-((5-(trifluoromethyl)-1H-pyrazol-3-yl)methyl)urea] was run?
A: 13 nM

Q: For `COc1ncc(N(Cc2n[nH]c(C(F)(F)F)c2CC(C)(C)O)C(=O)Nc2ccc(F)c(C(F)F)c2)cn1` [Example 205, 3-(3-(difluoromethyl)-4-fluorophenyl)-1-((4-(2-hydroxy-2-methylpropyl)-5-(trifluoromethyl)-1H-pyrazol-3-yl)methyl)-1-(2-methoxypyrimidin-5-yl)urea], which IC50 is on record?
A: > 1100 nM

Q: How did the IC50 turn out when `COc1ncc(N(Cc2n[nH]c(C(F)F)c2CC(C)(C)O)C(=O)Nc2ccc(F)c(C(F)F)c2)cn1` [Example 208, 1-((5-(difluoromethyl)-4-(2-hydroxy-2-methylpropyl)-1H-pyrazol-3-yl)methyl)-3-(3-(difluoromethyl)-4-fluorophenyl)-1-(2-methoxypyrimidin-5-yl)urea] was run?
A: > 1100 nM

Q: How did the IC50 turn out when `COc1ncc(N(Cc2cc(C#N)[nH]n2)C(=O)Nc2ccc(F)c(C(F)F)c2)cn1` [Example 209, 1-((5-cyano-1H-pyrazol-3-yl)methyl)-3-(3-(difluoromethyl)-4-fluorophenyl)-1-(2-methoxypyrimidin-5-yl)urea] was run?
A: 16 nM

Q: For `COc1ncc(N(Cc2cc(C(F)(F)F)[nH]n2)C(=O)Nc2ccnc(C(F)F)c2F)cn1` [Example 211, 3-(2-(difluoromethyl)-3-fluoropyridin-4-yl)-1-(2-methoxypyrimidin-5-yl)-1-((5-(trifluoromethyl)-1H-pyrazol-3-yl)methyl)urea], which IC50 is on record?
A: 31 nM

Q: Which IC50 does the source give for `COc1ncc(NC(=O)N(Cc2cc(C(F)(F)F)[nH]n2)c2cnc(OC)nc2)cn1` [Example 216, 1,3-bis(2-methoxypyrimidin-5-yl)-1-((5-(trifluoromethyl)-1H-pyrazol-3-yl)methyl)urea] here?
A: > 1100 nM

Q: How did the IC50 turn out when `COc1ncc(N(Cc2cc(C(F)(F)F)[nH]n2)C(=O)NC23CC(C)(C2)C3)cn1` [Example 217, 1-(2-methoxypyrimidin-5-yl)-3-(3-methylbicyclo[1.1.1]pentan-1-yl)-1-((5-(trifluoromethyl)-1H-pyrazol-3-yl)methyl)urea] was run?
A: > 1100 nM

Q: How did the IC50 turn out when `COc1ncc(N(Cc2cc(C(F)(F)F)[nH]n2)C(=O)Nc2cnc(SC)nc2)cn1` [Example 218, 1-(2-methoxypyrimidin-5-yl)-3-(2-(methylthio)pyrimidin-5-yl)-1-((5-(trifluoromethyl)-1H-pyrazol-3-yl)methyl)urea] was run?
A: > 1100 nM

Q: How did the IC50 turn out when `COc1ncc(N(Cc2cc(C(F)F)[nH]n2)C(=O)Nc2cc(F)c(F)c(F)c2)cn1` [Example 220, 1-((5-(difluoromethyl)-1H-pyrazol-3-yl)methyl)-1-(2-methoxypyrimidin-5-yl)-3-(3,4,5-trifluorophenyl)urea] was run?
A: 48 nM

Q: How did the IC50 turn out when `COc1ncc(N(Cc2cc(C(F)(F)F)[nH]n2)C(=O)Nc2nc(F)c(F)cc2F)cn1` [Example 221, 1-(2-methoxypyrimidin-5-yl)-1-((5-(trifluoromethyl)-1H-pyrazol-3-yl)methyl)-3-(3,5,6-trifluoropyridin-2-yl)urea] was run?
A: > 1100 nM

Source: patent publication US20250009742A1 (priority 2021, published 2025)
